Experiments:
[1] = biological target: T1, LmbF (Streptomyces lincolnensis, UniProt A9Y8R7); assay: X-ray crystal structure, […] Å; format: binding; conditions: covalent; internal aldimine with Lys270
T1 construct: full-length gene in pET42b (NdeI/XhoI), C-terminal His8 tag, expressed in E. coli BLR(DE3)/pGro7; active site at dimer interface; catalytic Lys270

[2] = biological target: T2, CcbF (Streptomyces caelestis, UniProt E9JES7); assay: X-ray crystal structure, […] Å; format: binding; conditions: covalent; internal aldimine with Lys260
T2 construct: full-length gene in pET42b (NdeI/XhoI), C-terminal His8 tag, expressed in E. coli BLR(DE3)/pGro7; catalytic Lys260; printed ccbF forward primer is identical to the lmbF one (likely misprint)
T2 sequence (E9JES7 entry or part of it): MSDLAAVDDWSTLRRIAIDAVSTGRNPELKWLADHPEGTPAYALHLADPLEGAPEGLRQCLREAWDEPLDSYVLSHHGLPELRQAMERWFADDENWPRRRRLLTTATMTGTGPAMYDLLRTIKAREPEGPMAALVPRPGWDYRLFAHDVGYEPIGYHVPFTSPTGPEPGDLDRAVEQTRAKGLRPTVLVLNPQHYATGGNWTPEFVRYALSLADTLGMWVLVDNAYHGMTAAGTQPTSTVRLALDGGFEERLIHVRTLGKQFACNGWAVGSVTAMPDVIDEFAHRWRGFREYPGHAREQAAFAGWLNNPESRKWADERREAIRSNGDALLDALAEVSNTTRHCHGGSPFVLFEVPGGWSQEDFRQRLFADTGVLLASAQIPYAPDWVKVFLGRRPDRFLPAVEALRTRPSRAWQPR

T1 sequence (A9Y8R7 entry or part of it): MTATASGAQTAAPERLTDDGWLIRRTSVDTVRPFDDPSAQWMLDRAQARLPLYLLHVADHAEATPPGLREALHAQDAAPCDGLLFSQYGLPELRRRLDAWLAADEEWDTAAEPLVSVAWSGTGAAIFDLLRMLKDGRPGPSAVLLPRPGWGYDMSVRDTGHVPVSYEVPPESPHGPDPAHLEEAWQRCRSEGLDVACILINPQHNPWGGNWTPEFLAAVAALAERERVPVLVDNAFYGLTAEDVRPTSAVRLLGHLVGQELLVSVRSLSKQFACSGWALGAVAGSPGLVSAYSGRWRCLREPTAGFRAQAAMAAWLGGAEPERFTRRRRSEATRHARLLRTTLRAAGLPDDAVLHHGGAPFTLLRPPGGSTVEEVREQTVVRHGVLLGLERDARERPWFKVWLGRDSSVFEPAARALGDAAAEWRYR

Cc1ncc(COP(=O)(O)O)c(C=O)c1O [PLP]
X-ray crystal structure, 1.7 Å [1]: we solved the X-ray crystal structures of LmbF and CcbF with PLP
X-ray crystal structure, 1.8 Å [2]: we solved the X-ray crystal structures of LmbF and CcbF with PLP

— article PMC11794154, “Molecular basis for the diversification of lincosamide biosynthesis by pyridoxal phosphate-dependent enzymes” (Nature Chemistry, 2024)
